Assay results taken from patent US20260207708A1, “THERAPEUTIC USES OF ADIPOSE-SECRETED SIGNALING PROTEIN (ADISSP)” (UNIVERSITY OF MASSACHUSETTS, priority 2023, published 2026).
Read-outs that look alike come from different tables or passages of the source.

Assays:
Akt [1] = assay: Akt activation in serum-starved brown adipocytes; type: cell-based; details: for blocking of Akt activation by ADISSP: adipocytes pre-treated with inhibitor 2 hr: S961 0.5 μM, Melittin 1 μM, Gallein 5 μM, wortmannin 1 μM, LDC1267 1 μM, then ADISSP 300 nM 30 min
Description: (§1) In some cases adipocytes were pre-treated with inhibitors for 2 hr: S961 (0.5 μM), Melittin (1 μM), Gallein (5 μM), wortmannin (1 μM), and LDC1267 (1 μM).

[2] = system: insulin receptor substrate 1 (IRS1); assay: IRS1 activation in serum-starved brown adipocytes; type: cell-based; details: ADISSP 300 nM, 30 min
Description: as §1

tyrosine phosphorylation = assay: Tyrosine phosphorylation in serum-starved brown adipocytes; type: cell-based; details: ADISSP 300 nM, 30 min
Description: as §1

Glut4 = Glut4 trafficking to the plasma membrane in Myc-Glut4-GFP transfected adipocytes; type: cell-based; details: adipocytes serum-starved overnight, treated 30 min; for Glut4 localization to the plasma membrane: Myc staining without permeabilization
Description: To evaluate effects of ADISSP on Glut4 trafficking to the plasma membrane, adipocytes were transfected with a Myc-Glut4-GFP plasmid, in which Myc and GFP were fused to the extracellular and intracellular regions of Glut4, respectively. The Adipocytes were serum-starved overnight, and then treated with purified ADISSP protein or insulin for 30 min. The adipocytes were fixed without permeabilization, and stained with Myc antibody and DAPI. […] 95% of GFP-positive cells were also Myc-positive after either ADISSP or insulin treatment, while very few GFP-positive cells were Myc-positive in control samples.

euglycemic mice = type: in vivo; details: 70 nmole/kg ip, 3 hr after injection
Description: (§2) To explore the mechanism of ADISSP action in vivo, 3-month-old male mice (n=4/group) with euglycemia were intraperitoneally (ip) injected with purified ADISSP protein (70 nmole/kg) at 0 hr. Glucose and insulin levels and Akt activation were measured 3 hr after injection.

Akt [3] = assay: Akt activation in adipose tissue in vivo after single ip dose; design: species or system mice; details: 70 nmole/kg ip, 3 hr after injection
Description: as §2

ob/ob mice [4] = assay: ob/ob mice, single dose then once every 48 hours; type: in vivo
Description: The effects of injection of purified ADISSP protein were evaluated on hyperglycemia, hyperinsulinemia, and liver steatosis in ob/ob mice (6 male and 9 female mice in control group and 5 male and 10 female mice in treatment group), which were used as a type 2 diabetic mouse model. The mice were injected intraperitoneally with vehicle or a single dose of purified ADISSP protein (50 nmole/kg). Glucose was monitored for 46 hours. Note, no food was provided in the first 8 hours. […] The glucose-lowering effect of ADISSP protein was not due to any difference of food intake, as there was no food provided in the first 8 hours. 46 hours post the first injection, ob/ob mice were injected with ADISSP (50 nmole/kg) once every 48 hour at 8 am (arrow). Mice were fed ad libitum.

ob/ob mice [5] = type: in vivo
Description: To evaluate longer-term effects of treatment with ADISSP, 12-week ob/ob mice (6 male and 8 female mice in control group and 8 male and 8 female mice in treatment group) were used. Glucose levels were measured at 7 am daily. Vehicle or ADISSP protein (62.6 nmole/kg per day) was ip injected once a day at 8 am for 30 days. […] In addition, after one-month treatment of ob/ob mice with ADISSP protein, bone density was examined by X-Ray. […] Instead, a slight increase was observed, as shown in the region in the box in FIG. 7G. Loss of bone density is associated with FGF21 and diabetes drug TZDs.

DIO mice [6] = assay: Two-week treatment of high fat-induced obese (DIO) mice; type: in vivo; details: 65 nmole/kg ip once a day, 14 injections
Description: In the experiment shown in FIGS. 7A-G, all daily glucose levels were measured 24-hr post ADISSP injection. A much stronger glucose reduction would have been observed if measured at earlier time points, e.g., at 6-hr or 12-hr following protein injection. […] Male mice (n=19 mice/group) were fed a high fat diet for 20 weeks to render them obese and hyperglycemia. Mice were then ip injected with ADISSP protein (65 nmole/kg) once a day at 8 am for a total of 14 injections. Glucose levels at ad libitum state were measured at 7:30 am, […]. Insulin levels and livers were examined.

DIO mice [7] = type: in vivo; details: 71 nmole/kg per day ip, one month
Description: We next performed a one-month treatment of hyperglycemic DIO mice (n=19-20 DIO mice/group) with purified ADISSP protein. Glucose levels were measured every day at 7:30 am followed by daily intraperitoneal injection of ADISSP (71 nmole/kg per day). […] Hypertriglyceridemia (FIG. 9J) and high level of Aspartate aminotransferase (AST) (indicative of liver damage caused by fatty liver) (FIG. 9K) were normalized as well.

[8] = system: STZ-induced type 1 diabetic mice; assay: High-dose streptozotocin (STZ)-induced type 1 diabetic mice; type: in vivo, C57BL6 mice; details: STZ 200 mg/kg single dose, ADISSP 50 nmole/kg ip at 0 hr and 24 h
Description: (§3) The effects of ADISSP protein administration on blood glucose and polyuria were evaluated in streptozotocin (STZ)-induced type 1 diabetic mice. A single dose (200 mg/kg) of STZ was ip injected into C57BL6 mice. Eight days post injection, as expected, high-dose STZ caused extremely severe type 1 diabetes with ad libitum glucose level (>600 mg/dL) exceeding the upper limit of the glucose meter. The mice were ip injected with ADISSP protein (50 nmole/kg) or vehicle at 0 hr and 24 h. After each injection, mice were fasted for 6 hours before glucose measurement so the glucose level in the vehicle group would fall below 600 mg/dL. […] We were not able to continue the experiment because the mice were not healthy due to the high dose of STZ. To account for this, a low dose (50 mg/kg) of STZ was injected daily from Day 1 to Day 5 to produce healthy, type 1 diabetes mice. From Day 13, glucose was measured at 7:30 am followed by ip injection of ADISSP protein (70 nmole/kg) or vehicle once a day at 8 am for two weeks. At Day 13, glucose was measured after 2 hour fasting, all other time points were measured at ad libitum state.

[9] = system: STZ-induced type 1 diabetic mice; assay: Low-dose streptozotocin (STZ)-induced type 1 diabetic mice; type: in vivo; details: STZ 50 mg/kg daily Day 1 to Day 5
Description: as §3

GAN diet NASH mice = assay: Gubra Amylin NASH (GAN) diet mice: NASH and cardiac hypertrophy; type: in vivo, C57BL6J mice
Source text: To examine the potential effects of Adissp protein on NASH, we fed wild-type male C57BL6J mice with the Gubra Amylin NASH (GAN) diet (Research Diets, D09100310) for 32 weeks to induce a NASH phenotype resembling human NASH. We then treated these mice with Adissp (113 nmole/kg per day) or vehicle. […] At Day 16 of the treatment, a sub-group of mice were sacrificed and NASH phenotype was examined. […] Thus, treatment with Adissp protein rapidly resolved the NASH phenotype.
The remaining mice were continuously treated with 63 nmole/kg per day Adissp protein or vehicle for 31 days.

[10] = 62.6 nmole/kg per day ip, 30 days
[11] = 113 nmole/kg per day, Day 16 of treatment

Compound: O=C1OC2(c3ccccc31)c1ccc(O)c(O)c1Oc1c2ccc(O)c1O [Gallein]
- blocking of Akt activation by ADISSP (Akt [1]): not blocked

Compound: CCOc1cn(-c2ccc(F)cc2C)nc1C(=O)Nc1ccc(Oc2ccnc3cc(OC)c(OC)cc23)c(F)c1 [LDC1267]
- blocking of Akt activation by ADISSP (Akt [1]): blocks

Compound: CC[C@H](C)[C@H](NC(=O)CN)C(=O)NCC(=O)N[C@@H](C)C(=O)N[C@H](C(=O)N[C@@H](CC(C)C)C(=O)N[C@@H](CCCCN)C(=O)N[C@H](C(=O)N[C@@H](CC(C)C)C(=O)N[C@H](C(=O)N[C@H](C(=O)NCC(=O)N[C@@H](CC(C)C)C(=O)N1CCC[C@H]1C(=O)N[C@@H](C)C(=O)N[C@@H](CC(C)C)C(=O)N[C@H](C(=O)N[C@@H](CO)C(=O)N[C@@H](Cc1c[nH]c2ccccc12)C(=O)N[C@H](C(=O)N[C@@H](CCCCN)C(=O)N[C@@H](CCCNC(=N)N)C(=O)N[C@@H](CCCCN)C(=O)N[C@@H](CCCNC(=N)N)C(=O)N[C@@H](CCC(N)=O)C(=O)N[C@@H](CCC(N)=O)C(N)=O)[C@@H](C)CC)[C@@H](C)CC)[C@@H](C)O)[C@@H](C)O)C(C)C)C(C)C [Melittin]
- blocking of Akt activation by ADISSP (Akt [1]): not blocked

Compound: ADISSP: recombinant adipose-secreted signaling protein with C-terminal His-tag, purified from medium of transfected Expi293F cells
- Akt activation (Akt [1]; serum-starved brown adipocytes, ADISSP 300 nM, 30 min): activates Akt independently of insulin receptor
- activation of insulin receptor substrate 1 (IRS1) [2]: did not activate
- tyrosine phosphorylation (tyrosine phosphorylation): induces a bulk of tyrosine phosphorylation
- GFP-positive cells also Myc-positive (Glut4): 95%
- Glut4 localization to the plasma membrane (Glut4): induced Glut4 localization to the plasma membrane
- insulin secretion (euglycemic mice): did not stimulate insulin secretion
- blood glucose level (euglycemic mice; 3-month-old male mice): lowers blood glucose level
- Akt activation in vivo (BAT, iWAT, eWAT) (Akt [3]): activated Akt in vivo
- duration of glucose-lowering effect after each subsequent injection (ob/ob mice [4]; 50 nmole/kg once every 48 hour): at least 48 hours
- hyperinsulinemia (ob/ob mice [4]; 50 nmole/kg once every 48 hour): improvement in hyperinsulinemia
- glucose lowered on average (ob/ob mice [4]; 50 nmole/kg once every 48 hour, fed ad libitum): 83.5 mg/dL
- liver steatosis (ob/ob mice [4]; 50 nmole/kg once every 48 hour, liver colour and histology): improved
- hyperglycemia (ob/ob mice [4]; injection once every 48 hours): sufficient to normalize hyperglycemia
- onset of glucose lowering (ob/ob mice [4]; post injection): two
- duration of glucose-lowering effect of a single dose (ob/ob mice [4]; single dose 50 nmole/kg ip): more than 20 hours
- body weight gain (ob/ob mice [5]; [10]): reduced body weight gain
- glucose tolerance (ob/ob mice [5]; [10]): improved glucose tolerance
- insulin sensitivity (ob/ob mice [5]; [10]): improved
- liver steatosis (ob/ob mice [5]; [10]): ameliorated liver steatosis
- hyperglycemia (daily glucose levels) (ob/ob mice [5]; 62.6 nmole/kg per day ip, 30 days, glucose measured 24-hr post injection): normalized hyperglycemia
- bone density by X-Ray (ob/ob mice [5]; mouse, in vivo): did not see decreased bone density. Instead, a slight increase was observed
- fatty liver (DIO mice [6]): amelioration of fatty liver
- hyperinsulinemia (DIO mice [6]): reduced hyperinsulinemia
- liver weight (DIO mice [6]): reduction of liver weight
- daily glucose levels (DIO mice [6]; ad libitum, 6 hr, 12 hr and 24 hr from injection): clear improvement in daily glucose levels
- Aspartate aminotransferase (AST) level (DIO mice [7]): normalized
- body weight (DIO mice [7]): decreased body weight
- fat mass (DIO mice [7]): reduction of fat mass
- fatty liver (DIO mice [7]): completely reversed fatty liver
- glucose tolerance (DIO mice [7]): markedly improved
- hyperglycemia (daily glucose levels) (DIO mice [7]): completely normalized hyperglycemia
- hypertriglyceridemia (serum triglycerides) (DIO mice [7]): normalized
- insulin sensitivity (DIO mice [7]): markedly improved
- lean mass (DIO mice [7]): but not lean mass
- liver weight (DIO mice [7]): normalized liver weight
- surface body temperature (DIO mice [7]): higher surface body temperature
- polyuria [8]: improvement in polyuria
- decrease of glucose levels ([8]; 6 hours fasted after each injection): 41-48%
- polyuria ([9]; ADISSP 70 nmole/kg ip once a day for two weeks): improved polyuria
- blood glucose ([9]; ADISSP 70 nmole/kg ip once a day for two weeks from Day 13): markedly lowered blood glucose
- fibrosis (Sirius Red staining) (GAN diet NASH mice; [11]): greatly alleviated
- hepatomegaly (liver size and weight) (GAN diet NASH mice; [11]): ameliorated
- inflammation (GAN diet NASH mice; [11]): ameliorated
- steatosis (GAN diet NASH mice; [11]): ameliorated
- hyperglycemia (blood glucose) (GAN diet NASH mice; GAN diet 32 weeks, 113 nmole/kg per day): normalized hyperglycemia
- cardiac hypertrophy (heart weight and size) (GAN diet NASH mice; remaining mice continued at 63 nmole/kg per day for 31 days): resolved high fat diet-induced cardiac hypertrophy

Compound: insulin [reference compound]
- GFP-positive cells also Myc-positive (Glut4): 95%
- Glut4 localization to the plasma membrane (Glut4): induced Glut4 localization to the plasma membrane
